From patent publication US11351173B2, “Substituted pyrrolo[1,2-a]pyrimidines and their use in the treatment of medical disorders” (Bial—R&D Investments, S.A., priority 2014, dated 2022)
Values after ≈ are worked out from the molar mass of the structure shown.

Experiments:
[1] = molecular target: T1, glucocerebrosidase (Gcase) (Homo sapiens, UniProt P04062); test: Glucocerebrosidase (Gcase) activation assay, 4-methylumbelliferyl-beta-D-glucopyranoside substrate, fluorescence readout; type: biochemical; conditions: for activation at 0.1 µM: read-out: Percent Gcase Activation, 0.1 μM Test Compound; for activation at 1 µM: test compound at 1.0 μM, read-out: Percent Gcase Activation, 1 μM Test Compound
T1 construct: micellar solution containing 10 nM GCase and 100 nM saposin C
T1 sequence (P04062 40-536): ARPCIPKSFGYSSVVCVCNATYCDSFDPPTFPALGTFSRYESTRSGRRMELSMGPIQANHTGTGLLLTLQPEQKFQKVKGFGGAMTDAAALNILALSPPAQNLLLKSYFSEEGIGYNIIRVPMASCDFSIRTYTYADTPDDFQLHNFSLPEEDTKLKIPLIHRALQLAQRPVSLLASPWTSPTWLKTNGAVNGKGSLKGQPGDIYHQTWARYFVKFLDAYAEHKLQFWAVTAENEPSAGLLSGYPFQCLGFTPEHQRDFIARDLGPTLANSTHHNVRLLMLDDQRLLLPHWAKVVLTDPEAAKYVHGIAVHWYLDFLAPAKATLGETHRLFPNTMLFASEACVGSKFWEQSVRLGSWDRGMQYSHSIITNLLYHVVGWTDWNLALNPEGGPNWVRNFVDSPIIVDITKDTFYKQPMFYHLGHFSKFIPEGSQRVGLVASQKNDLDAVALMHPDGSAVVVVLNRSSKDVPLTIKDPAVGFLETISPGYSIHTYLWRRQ
Summary of the method: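 Fluorescence (ex 365 nm, em 440 nm) read after glycine pH 12.5 stop of a 15 min room-temperature reaction. GCase 10 nM plus saposin C 100 nM in PS/triton micelles, pH 4.7, preincubated 30 min with compound; substrate solution held 2 mM 4-MU-beta-glucoside. Screened at 1.0 and 0.1 μM; 8-point, 3-fold curves from 5 μM top.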

[2] = Compound solubility in water; conditions: water; for solubility: Compound Solubility in Water

| activation at 0.1 µM ([1]; test compound at 0.1 μM) | activation at 1 µM [1] | solubility [2] | solubility ([2]; in water) | Percent Gcase Activation, 0.1 μM Test Compound ([1]; test compound at 0.1 μM) | Compound Solubility in Water [2] | Structure (SMILES) |
| --- | --- | --- | --- | --- | --- | --- |
| < 10% | 30 to 60% | < 1.5 µg/mL | – | – | – | Cc1cc(C)n2ccc(C(=O)Nc3ccc(-c4cocn4)nc3)c2n1 [III-3] |
| 10 to 20% | > 60% | 2.3 µg/mL (≈ 6.22 µM) | – | – | – | CCCCO[C@H]1CC[C@H](NC(=O)c2ccn3c(C4CC4)cc(C)nc23)CC1 [III-44] |
| < 10% | < 30% | 25.4 µg/mL (≈ 81 µM) | – | – | – | Cc1cc(C)n2ccc(C(=O)NC3CCC4(CCCO4)C3)c2n1 (centres unmarked) [III-146] |
| > 20% | > 60% | 0.06 µg/mL (≈ 0.181 µM) | – | – | – | Cc1cc(C)n2ccc(C(=O)Nc3ccc(-c4ncco4)cc3)c2n1 [III-7] |
| < 10% | < 30% | 38.5 µg/mL (≈ 104 µM) | – | – | – | Cc1cc(C)n2ccc(C(=O)NC3CCC(C(=O)N(C)C4CC4)CC3)c2n1 (centres unmarked) [III-134] |
| < 10% | < 30% | 23.9 µg/mL (≈ 79.3 µM) | – | – | – | CO[C@H]1CC[C@H](NC(=O)c2ccn3c(C)cc(C)nc23)CC1 [III-89] |
| > 20% | > 60% | 2.5 µg/mL (≈ 6.92 µM) | – | – | – | C#Cc1ccc(C(C)(C)NC(=O)c2ccn3c(C)cc(COC)nc23)cc1 [III-61] |
| > 20% | > 60% | < 1.5 µg/mL | – | – | – | COCC#Cc1ccc(NC(=O)c2ccn3c(C)cc(C)nc23)cc1 [III-4] |
| < 10% | < 30% | – | 4.1 µg/mL (≈ 11.2 µM) | – | – | Cc1cc(C)n2ccc(C(=O)N[C@H]3CC[C@H](Oc4cccnc4)CC3)c2n1 [III-206] |
| > 20% | > 60% | 2.6 µg/mL (≈ 7.75 µM) | – | – | – | COC1CCc2ccc(NC(=O)c3ccn4c(C)cc(C)nc34)cc21 (centres unmarked) [III-119] |
| > 20% | > 60% | 0.7 µg/mL (≈ 2.19 µM) | – | – | – | Cc1cc(C)n2ccc(C(=O)N[C@@H]3CCCc4ccccc43)c2n1 [III-168] |
| 10 to 20% | > 60% | – | 1.6 µg/mL (≈ 4.66 µM) | – | – | CO[C@H]1CC[C@@H](C(C)(C)NC(=O)c2ccn3c(C)cc(C)nc23)CC1 [III-238] |
| 10 to 20% | > 60% | 5.8 µg/mL (≈ 14.7 µM) | – | – | – | COCCOc1ccc2c(c1)C(NC(=O)c1ccn3c(C)cc(C)nc13)CCC2 (centres unmarked) [III-104] |
| < 10% | < 30% | 38.3 µg/mL (≈ 107 µM) | – | – | – | CCOCCO[C@H]1CC[C@H](NC(=O)c2ccn3c(C)cc(C)nc23)CC1 [III-102] |
| > 20% | > 60% | 2.7 µg/mL (≈ 7.47 µM) | – | – | – | C#Cc1ccc(C(C)(C)NC(=O)c2ccn3c(COC)cc(C)nc23)cc1 [III-62] |
| > 20% | > 60% | 5.8 µg/mL (≈ 16.3 µM) | – | – | – | Cc1cc(C)n2ccc(C(=O)N[C@H]3CC[C@H](OC4CCCC4)CC3)c2n1 [III-132] |
| 10 to 20% | > 60% | 13.1 µg/mL (≈ 41.5 µM) | – | – | – | CCCCO[C@H]1C[C@H](NC(=O)c2ccn3c(C)cc(C)nc23)C1 [III-198] |
| > 20% | > 60% | – | 7.1 µg/mL (≈ 23.2 µM) | – | – | [2H]C1(NC(=O)c2ccn3c(C)ccnc23)CCCc2ccccc21 (centres unmarked) [III-263] |
| < 10% | > 60% | – | 4 µg/mL (≈ 12.6 µM) | – | – | Cc1ccnc2c(C(=O)Nc3ccc(-c4ncco4)cc3)ccn12 [III-256] |
| < 10% | 30 to 60% | 16.9 µg/mL (≈ 45.2 µM) | – | – | – | CCCOCCO[C@H]1CC[C@H](NC(=O)c2ccn3c(C)cc(C)nc23)CC1 [III-197] |
| 10 to 20% | > 60% | 0.1 µg/mL (≈ 0.297 µM) | – | – | – | Cc1cc(C)n2ccc(C(=O)Nc3ccc4nc(C)sc4c3)c2n1 [III-88] |

| activation at 0.1 µM ([1]; test compound at 0.1 μM) | activation at 1 µM [1] | solubility [2] | solubility ([2]; in water) | Percent Gcase Activation, 0.1 μM Test Compound ([1]; test compound at 0.1 μM) | Compound Solubility in Water [2] | Structure (SMILES) |
| --- | --- | --- | --- | --- | --- | --- |
| 10 to 20% | > 60% | 0.8 µg/mL (≈ 2.07 µM) | – | – | – | Cc1cc(C)n2ccc(C(=O)NC3CCCc4ccc(-c5cocn5)cc43)c2n1 (centres unmarked) [III-122] |
| > 20% | > 60% | 2.7 µg/mL (≈ 8.15 µM) | – | – | – | Cc1cc(C)n2ccc(C(=O)NC3c4ccccc4C4CC3C4)c2n1 (centres unmarked) [III-136] |
| > 20% | > 60% | – | 0.2 µg/mL (≈ 0.536 µM) | – | – | Cc1cc(C(F)(F)F)nc2c(C(=O)NC3CCCc4ccccc43)ccn12 (centres unmarked) [III-251] |
| < 10% | 30 to 60% | – | 0.6 µg/mL (≈ 1.61 µM) | – | – | Cc1cc(C(F)(F)F)n2ccc(C(=O)NC3CCCc4ccccc43)c2n1 (centres unmarked) [III-253] |
| 10 to 20% | > 60% | 13.6 µg/mL (≈ 36.4 µM) | – | – | – | CCCCO[C@H]1CC[C@H](NC(=O)c2ccn3c(C)cc(COC)nc23)CC1 [III-45] |
| < 10% | 30 to 60% | – | 17 µg/mL (≈ 42.7 µM) | – | – | CCCCCN(C)C(=O)[C@H]1CC[C@H](NC(=O)c2ccn3c(C)cc(C)nc23)CC1 [III-203] |
| – | – | – | – | * (less than 10% Gcase activation) | 21.3 µg/mL | Cc1cc(C)n2ccc(C(=O)NC3CCC4(CCCCO4)C3)c2n1 (centres unmarked) [III-85] |
| 10 to 20% | > 60% | 0.3 µg/mL (≈ 0.755 µM) | – | – | – | Cc1cc(Br)nc2c(C(=O)Nc3ccc(-c4cocn4)cc3)ccn12 [III-40] |
| > 20% | > 60% | – | 2.1 µg/mL (≈ 5.26 µM) | – | – | CCCCO[C@H]1CC[C@H](NC(=O)c2ccn3c(COC)cc(C4CC4)nc23)CC1 [III-268] |
| < 10% | < 30% | 17 µg/mL (≈ 51.9 µM) | – | – | – | Cc1cc(C)n2ccc(C(=O)NC3CCC4(CCCO4)CC3)c2n1 (centres unmarked) [III-141] |
| > 20% | > 60% | < 0.1 µg/mL | – | – | – | Cc1cc(C)n2ccc(C(=O)Nc3ccc(Cl)c(COc4cccnc4)c3)c2n1 [III-15] |
| > 20% | > 60% | – | 0.7 µg/mL (≈ 2 µM) | – | – | Cc1cc(C)n2c(F)cc(C(=O)Nc3ccc(-c4cocn4)cc3)c2n1 [III-271] |
| 10 to 20% | > 60% | 4.2 µg/mL (≈ 11.4 µM) | – | – | – | Cc1cc(C)n2ccc(C(=O)N[C@H]3CC[C@H](Oc4cccs4)CC3)c2n1 [III-190] |
| > 20% | > 60% | 0.9 µg/mL (≈ 2.53 µM) | – | – | – | Cc1cc(C(F)F)nc2c(C(=O)NC3CCCc4ccccc43)ccn12 (centres unmarked) [III-29] |
| < 10% | 30 to 60% | < 0.1 µg/mL | – | – | – | Cc1cc(C)n2ccc(C(=O)Nc3ccc(N4CCCCC4)cc3)c2n1 [III-17] |
| > 20% | > 60% | 0.3 µg/mL (≈ 0.903 µM) | – | – | – | Cc1cc(C)n2ccc(C(=O)Nc3ccc(-c4ccco4)nc3)c2n1 [III-10] |
| < 10% | < 30% | 29.3 µg/mL (≈ 97.9 µM) | – | – | – | Cc1cc(C)n2ccc(C(=O)NC3CC4CCC(C3)O4)c2n1 (centres unmarked) [III-169] |
| > 20% | > 60% | 0.06 µg/mL (≈ 0.196 µM) | – | – | – | Cc1cc(C)n2ccc(C(=O)Nc3ccc4c(c3)CCC4)c2n1 [III-148] |
| < 10% | 30 to 60% | – | 3 µg/mL (≈ 7.02 µM) | – | – | COCc1cc(C2CC2)n2ccc(C(=O)NC3(C)CCOc4cc(F)c(F)cc43)c2n1 (centres unmarked) [III-270] |
| < 10% | < 30% | 15.5 µg/mL (≈ 45 µM) | – | – | – | CCCCOC(=O)N1CC(NC(=O)c2ccn3c(C)cc(C)nc23)C1 [III-137] |
| > 20% | > 60% | 0.06 µg/mL (≈ 0.171 µM) | – | – | – | Cc1cc(Cl)nc2c(C(=O)NC3c4ccccc4C4CC3C4)ccn12 (centres unmarked) [III-69] |
